Laboratory results taken from patent US12208108B2, “Drug targets of delayed aging and human brain diseases” (Texas Tech University System, priority 2016, dated 2025).

What was measured:
SHSY5Y cells [1] = assay: Lipid peroxidation assay (HNE); type: cell-based, Human
Description: Lipid peroxidation assay. Lipid peroxidates are unstable indicators of oxidative stress in neurons. 4-hydroxy-2-nonenol (HNE) is the final product of lipid peroxidation that was measured in the cell lysates from SHSY5Y cells of control and experimental treatments (n=4), using an HNE-His ELISA Kit (Cell BioLabs, Inc., San Diego, Calif.) as described in Manczak et al..

SHSY5Y cells [2] = assay: Immunoblotting analysis of mitochondrial, synaptic proteins and Aβ; type: cell-based, Human
From the text: Immunoblotting analysis. To determine the effects of Aβ on mitochondrial proteins and the useful effects of DDQ at the protein level, the inventors quantified mitochondrial proteins in five independent treatments of cells with Aβ, DDQ, Aβ+DDQ and DDQ+Aβ.
DDQ reduces Aβ and Drp1 levels. To determine whether DDQ reduces Aβ and Drp1 levels, the inventors conducted immunoblotting analysis, in cells treated with DDQ, Aβ+DDQ and DDQ+Aβ.
FIG. 3 illustrates the experimental strategy of the cell culture work and including treatments. The cells were grown in a medium (1:1 DMEM and F12, 10% FBS, lx penicillin, and streptomycin) at 37° C. in a humified incubator with a 5% CO2 environment. After seeding were allowed to grow for 24-48 hrs or until 80% confluence in six-well plates and used for experiments. The inventors used five different groups of cells—(1) untreated SHSY5Y cells; (2) SHSY5Y cells treated with DDQ (250 nM final concentration) for 24 hrs; (3) SHSY5Y cells incubated with Aβ peptide 1-42 (20 uM final concentration) for 6 hrs; (4) SHSY5Y cells treated Aβ for 6 hrs+DDQ for 24 hrs and (5) SHSY5Y cells treated DDQ for 24 hrs and Aβ for 6 hrs. Half a million SHSY5Y cells were suspended per well into six-well plates. The inventors used Aβ peptide 1-42 and DDQ 250 nM in the experiments. After treatments, the inventors harvested cells, conducted experiments to measure the levels mRNA using Sybr-Green based real-time RT-PCR, proteins using immunoblotting and immunofluorescence analysis and cell viability using MTT assay. The inventors counted the number of mitochondria by electron microscopy.

[3] = target: T1, colocalization of Drp1 and Aβ (Homo sapiens, UniProt O00429); assay: Double-labeling immunofluorescence analysis of Drp1 and Aβ; type: cell-based
T1 construct: SHSY5Y cells incubated with Aβ peptide 1-42 (20 uM final concentration); Anaspec (Aβ 1-42 peptide); host or cells: SHSY5Y human neuroblastoma cells
T1 sequence (O00429 whole entry): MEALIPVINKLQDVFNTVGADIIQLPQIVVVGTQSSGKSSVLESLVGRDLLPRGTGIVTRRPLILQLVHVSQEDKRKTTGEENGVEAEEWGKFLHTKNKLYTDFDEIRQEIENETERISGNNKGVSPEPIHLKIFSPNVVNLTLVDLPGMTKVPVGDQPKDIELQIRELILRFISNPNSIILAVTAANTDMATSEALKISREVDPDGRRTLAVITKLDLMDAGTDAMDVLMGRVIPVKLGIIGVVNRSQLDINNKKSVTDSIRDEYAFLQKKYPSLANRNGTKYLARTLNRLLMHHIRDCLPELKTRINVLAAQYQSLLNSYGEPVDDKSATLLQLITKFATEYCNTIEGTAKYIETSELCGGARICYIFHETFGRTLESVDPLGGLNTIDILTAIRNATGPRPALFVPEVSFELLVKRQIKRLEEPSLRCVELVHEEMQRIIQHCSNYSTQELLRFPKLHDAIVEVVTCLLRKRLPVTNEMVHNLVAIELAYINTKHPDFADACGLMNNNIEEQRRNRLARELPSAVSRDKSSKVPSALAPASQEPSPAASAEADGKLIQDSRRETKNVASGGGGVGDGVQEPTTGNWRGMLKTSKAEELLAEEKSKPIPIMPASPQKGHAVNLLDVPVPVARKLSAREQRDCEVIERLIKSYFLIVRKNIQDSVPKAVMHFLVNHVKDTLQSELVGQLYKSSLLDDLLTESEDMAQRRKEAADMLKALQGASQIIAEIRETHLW
Description: Double-labeling immunofluorescence analysis of Drp1 and Aβ. To determine whether Drp1 localizes and interacts with Aβ, the inventors conducted double-labeling analysis of Drp1 and Aβ in DDQ pre-treated, post-treated and untreated, Aβ incubated cells.
Double labeling immunofluorescence analysis of Drp1 and Aβ. To determine the interaction between Drp1 and Aβ, the inventors conducted double-labeling immunofluorescence analysis, using an anti-Drp1 antibody (rabbit polyclonal, Santa Cruz Biotechnology) and 6E10 (Covance). As described earlier, the sections from AD patients and control subjects were deparaffinized and treated with sodium borohydrate to reduce autofluorescence.
For the first labeling, the Aβ incubated (DDQ pre-treated, post-treated and untreated) cells were incubated overnight with the anti-Drp1 antibody (1:200) at room temperature. On the day after this primary antibody incubation, the sections were washed with 0.5% Triton in PBS. They were then incubated with a secondary biotinylated anti-rabbit antibody at a 1:400 dilution (Vector Laboratories, Burlingame, Calif., USA) or a secondary biotinylated anti-mouse antibody (1:400) for 1 h at room temperature. They were incubated for 1 h with labeled streptavidin, an HRP solution (Molecular Probes). […]

SHSY5Y cells [4] = assay: Cell viability test (MTT assay); type: cell-based, Human
Description: Cell viability test (MTT assay). Mitochondrial respiration, an indicator of cell viability, was assessed in the SHSY5Y cells from control and experimental treatments (n=4), using the mitochondrial-dependent reduction of 3-(4,5-dimethyl-thiazol-2-yl)-2,5-diphenyl-tetrazolium bromide (MTT) to formazan as described in Manczak et al..

[5] = DDQ 250 nM 24 hrs vs untreated cells
[6] = Aβ + DDQ (Aβ1-42 20 μM 6 hrs, then DDQ 24 hrs) vs untreated cells
[7] = Aβ + DDQ (Aβ1-42 6 hrs, then DDQ 24 hrs) vs Aβ treated cells
[8] = DDQ + Aβ (DDQ 24 hrs, then Aβ1-42 6 hrs) vs Aβ treated cells
[9] = DDQ + Aβ (DDQ 24 hrs, then Aβ1-42 6 hrs) vs untreated cells

**Q.** Which results are given for CCOP(=O)(OCC)C(NCCc1ccc(O)c(O)c1)c1ccnc2ccccc12 (centres unmarked) [DDQ, diethyl(3,4-dihydroxyphenethylamine)(quinolin-4-yl)methylphosphonate]?
**A.** lipid peroxidation (4-hydroxy-nonenol) levels (SHSY5Y cells [1]; Aβ + DDQ (Aβ1-42 6 hrs, then DDQ 24 hrs) vs cells incubated with Aβ alone): significantly reduced levels; lipid peroxidation (4-hydroxy-nonenol) levels (SHSY5Y cells [1]; [5]): significantly decreased levels; lipid peroxidation (4-hydroxy-nonenol) levels (SHSY5Y cells [1]; DDQ + Aβ (DDQ 24 hrs, then Aβ1-42 6 hrs) vs cells incubated with Aβ alone): significantly reduced levels; Drp1 protein level (SHSY5Y cells [2]; [6]): reduced; Fis1 protein level (SHSY5Y cells [2]; [6]): reduced; Mfn1 protein level (SHSY5Y cells [2]; [6]): significantly increased; PSD95 protein level (SHSY5Y cells [2]; [6]): significantly increased; synaptophysin protein level (SHSY5Y cells [2]; [6]): significantly increased; Drp1 protein level (SHSY5Y cells [2]; [7]): significantly reduced levels; Mfn1 protein level (SHSY5Y cells [2]; [7]): increased; Mfn2 protein level (SHSY5Y cells [2]; [7]): increased; Nrf1 protein level (SHSY5Y cells [2]; [7]): increased; Nrf2 protein level (SHSY5Y cells [2]; [7]): increased; PSD95 protein level (SHSY5Y cells [2]; [7]): increased; TFAM protein level (SHSY5Y cells [2]; [7]): increased; synaptophysin protein level (SHSY5Y cells [2]; [7]): increased; 4 kDa Aβ levels (SHSY5Y cells [2]; Aβ + DDQ (Aβ1-42 6 hrs, then DDQ 24 hrs) vs cells treated with Aβ alone): reduced levels; Drp1 protein level (SHSY5Y cells [2]; [5]): significantly reduced; Fis1 protein level (SHSY5Y cells [2]; [5]): significantly reduced; Mfn2 protein level (SHSY5Y cells [2]; [5]): significantly increased; Mitochondrial biogenesis protein levels (SHSY5Y cells [2]; [5]): significantly increased; Drp1 protein level (SHSY5Y cells [2]; [8]): significantly reduced levels; Fis1 protein level (SHSY5Y cells [2]; [8]): significantly reduced levels; Mfn1 protein level (SHSY5Y cells [2]; [8]): increased; Mfn2 protein level (SHSY5Y cells [2]; [8]): increased; Nrf1 protein level (SHSY5Y cells [2]; [8]): significantly increased levels; Nrf2 protein level (SHSY5Y cells [2]; [8]): significantly increased levels; PSD95 protein level (SHSY5Y cells [2]; [8]): increased; TFAM protein level (SHSY5Y cells [2]; [8]): significantly increased levels; synaptophysin protein level (SHSY5Y cells [2]; [8]): increased; 4 kDa Aβ levels (SHSY5Y cells [2]; DDQ + Aβ (DDQ 24 hrs, then Aβ1-42 6 hrs) vs cells treated with Aβ alone): reduced levels; Drp1 protein level (SHSY5Y cells [2]; [9]): Decreased levels; co-localization of Drp1 with Aβ ([3]; DDQ post-treated Aβ incubated cells vs Aβ incubated cells alone): reduced co-localization; co-localization of Drp1 with Aβ ([3]; DDQ pre-treated Aβ incubated cells vs Aβ incubated cells alone): reduced co-localization; Cell viability (SHSY5Y cells [4]; [6]): unchanged; Cell viability (SHSY5Y cells [4]; [5]): significantly increased; Cell viability (SHSY5Y cells [4]; DDQ + Aβ (DDQ 24 hrs, then Aβ1-42 6 hrs) vs Aβ incubated cells): Significantly increased; Cell viability (SHSY5Y cells [4]; [9]): unchanged
